In US20180353460A1, “METHODS OF TREATING UROLOGICAL DISORDERS USING SARMs” (priority 2014, published 2018):
“And” between values parts separate entries of the source, which are not always exact repeats. Equal entries are not always repeated.

System: prostate, seminal vesicles and levator ani muscle
Test: Androgenic and anabolic activity in castrated (ORX) male rats, daily oral gavage for fourteen days
Assay type: in vivo, rat
Settings: for levator ani muscle weight / prostate weight / seminal vesicle weight / dose that fully maintained or restored levator ani muscle weight (100% of intact): castrated (ORX) rats; for levator ani muscle weight / prostate weight / seminal vesicle weight: oral gavage 14 days; for ED50 in levator ani / ED50 in prostate / ED50 in seminal vesicles / Emax in levator ani / Emax in prostate / Emax in seminal vesicles: ORX rats, nonlinear regression
Experimental: Male Sprague-Dawley rats weighing approximately 200 g were purchased from Harlan Bioproducts for Science (Indianapolis, Ind.). […] The anabolic and androgenic activity of compound of Formula VIII in intact animals was tested, as well as a dose response evaluation in acutely orchidectomized (ORX) animals. Regenerative effects of the compound of Formula VIII in chronically (9 days) ORX rats was similarly evaluated.
The test article for this study was weighed and dissolved in 10% DMSO (Fisher) diluted with PEG 300 (Acros Organics, NJ) for preparation of the appropriate dosage concentrations. […] Animals were randomly assigned to one of seven groups consisting of 4 to 5 animals per group. Control groups (intact and ORX) were administered vehicle daily. Compound of Formula VIII was administered via oral gavage at doses of 0.01, 0.03, 0.1, 0.3, 0.75, and 1 mg/day to both intact and ORX groups. Where appropriate, animals were castrated on day one of the study. Treatment with compound of Formula VIII began nine days post ORX and was administered daily via oral gavage for fourteen days.
(§1) In addition, ventral prostate, seminal vesicles, and levator ani muscle were removed, individually weighed, normalized to body weight, and expressed as a percentage of intact control. Student's T-test was used to compare individual dose groups to the intact control group. Significance was defined a priori as a P-value <0.05. Ventral prostate and seminal vesicle weights were evaluated as a measure of androgenic activity, whereas levator ani muscle weight was evaluated as a measure of anabolic activity. Blood was collected from the abdominal aorta, centrifuged, and sera were frozen at −80° C. prior to determination of serum hormone levels. Serum luteinizing hormone (LH) and follicle stimulating hormone (FSH) concentrations were determined.
Male Sprague-Dawley rats weighing approximately 200 g were purchased from Harlan Bioproducts for Science (Indianapolis, Ind.). […] Anabolic and androgenic activity of compound of Formula IX in intact animals was evaluated, and the dose response in acutely orchidectomized (ORX) animals was evaluated as well. Regenerative effects of compound of Formula IX in chronically (9 days) ORX rats were also assessed.
The compound was weighed and dissolved in 10% DMSO (Fisher) diluted with PEG 300 (Acros Organics, NJ) for preparation of the appropriate dosage concentrations. […] Intact and ORX animals were randomly assigned to one of seven groups consisting of 4 to 5 animals per group. Control groups (intact and ORX) were administered vehicle daily. Compound of Formula IX was administered via oral gavage at doses of 0.01, 0.03, 0.1, 0.3, 0.75, and 1 mg/day to both intact and ORX groups.
as §1, with “Castrated animals (on day one of the study) were randomly assigned to dose groups (4-5 animals/group) of 0.01, 0.03, 0.1, 0.3, 0.75, and 1 mg/day, for dose-response evaluation. Dosing began nine days post ORX and was administered daily via oral gavage for fourteen days. […] In” for “In”, “As a measure of androgenic activity, ventral” for “Ventral”, “evaluated,” for “evaluated as a measure of androgenic activity,”, “lutenizing” for “luteinizing”
Male Sprague-Dawley rats weighing approximately 200 g were purchased from Harlan Bioproducts for Science (Indianapolis, Ind.).

SMILES | levator ani muscle weight (0.01 mg/day) | prostate weight (0.01 mg/day) | seminal vesicle weight (0.01 mg/day) | levator ani muscle weight (0.03 mg/day) | prostate weight (0.03 mg/day) | seminal vesicle weight (0.03 mg/day) | levator ani muscle weight (0.1 mg/day) | prostate weight (0.1 mg/day) | seminal vesicle weight (0.1 mg/day) | levator ani muscle weight (0.3 mg/day) | prostate weight (0.3 mg/day) | seminal vesicle weight (0.3 mg/day) | levator ani muscle weight (0.75 mg/day) | prostate weight (0.75 mg/day) | seminal vesicle weight (0.75 mg/day) | levator ani muscle weight (1 mg/day) | prostate weight (1 mg/day) | seminal vesicle weight (1 mg/day) | ED50 in levator ani [mg/day] | ED50 in prostate [mg/day] | further results
C[C@](O)(COc1ccc(C#N)cc1)C(=O)Nc1ccc(C#N)c(Cl)c1 [VIII, (S)—N-(3-Chloro-4-cyanophenyl)-3-(4-cyanophenoxy)-2-hydroxy-2-methylpropanamide] | 52%±8% | 17%±6% | 10%±3% | 67%±9% | 31%±3% | 13%±4% | 98%±10% | 43%±15% and 43±15% | 21%±6% | 103%±12% | 54%±17% | 43%±8% | 105%±12% | 58%±10% | 51%±9% | 110%±17% and 110±17% | 73%±12% and 73±12% | 69%±14% | – | – | anabolic ratio muscle/prostate weight (castrated rats, 0.01 mg/day): 3.02; anabolic ratio muscle/prostate weight (castrated rats, 0.03 mg/day): 2.13; anabolic ratio muscle/prostate weight (castrated rats, 0.1 mg/day): 2.27; anabolic ratio muscle/prostate weight (castrated rats, 0.3 mg/day): 1.90; anabolic ratio muscle/prostate weight (castrated rats, 0.75 mg/day): 1.83; anabolic ratio muscle/prostate weight (castrated rats, 1 mg/day): 1.51; derived dose that would restore levator ani muscle weight to 100% (castrated rats, oral gavage): 0.1 mg/day
C[C@](O)(COc1ccc(C#N)cc1)C(=O)Nc1ccc(C#N)c(C(F)(F)F)c1 [Compound IX, (S)—N-(4-Cyano-3-(trifluoromethyl)phenyl)-3-(4-cyanophenoxy)-2-hydroxy-2-methylpropanamide] | 59%±6% | 8%±2% | 12%±4% | 85%±9% | 20%±5% | 17%±5% | 112%±10% | 51%±19% | 35%±10% | 122%±16% | 56%±9% | 61%±15% | 127±12% | 80%±28% | 70%±14% | 129.66±2% | 74±12.5% | 80%±6% | 0.02 ± 0.01 | 0.09 ± 0.07 | ED50 in seminal vesicles: 0.17 ± 0.05 mg/day; Emax in levator ani: 131%±2%; Emax in prostate: 83%±25%; Emax in seminal vesicles: 85%±11%; dose that fully maintained or restored levator ani muscle weight (100% of intact) (oral gavage): > 0.1 mg/day
C[C@](O)(COc1ccc(C#N)c(F)c1)C(=O)Nc1ccc(C#N)c(C(F)(F)F)c1 [XIII, (S)—N-(4-cyano-3-(trifluoromethyl)phenyl)-3-(4-cyano-3-fluorophenoxy)-2-hydroxy-2-methylpropanamide] | 71%±4% | 24%±4% | 15%±2% | 101%±15% | 37%±9% | 25%±9% | 125%±20% | 50%±11% | 67%±20% | 126%±14% | 88%±16% | 113%±6% | 151±9% | 132%±16% | 155%±16% | 143±17% | 118±12% | 160%±7% | 0.03 ± 0.01 | 0.21 ± 0.04 | ED50 in seminal vesicles: 0.2 ± 0.04 mg/day; Emax in levator ani: 147%±10%; Emax in prostate: 147%±10%; Emax in seminal vesicles: 188%±135%; dose that fully maintained or restored levator ani muscle weight (100% of intact) (oral gavage): 0.03 mg/day
